Here are results for 26 compounds from patent US20090311217A1, “3-SUBSTITUTED-1H-INDOLE COMPOUNDS, THEIR USE AS MTOR KINASE AND PI3 KINASE INHIBITORS, AND THEIR SYNTHESES” (priority 2008, published 2009).

One test concerns the target PI3K-alpha (Homo sapiens, UniProt P42336). As to the kind of experiment: PI3K-alpha fluorescence polarization assay. Format: biochemical. As to conditions: read-out: PI3Kα Avg. IC50.
A further test deals with PI3K-gamma (Homo sapiens, UniProt P48736). Put plainly: PI3K-gamma fluorescence polarization assay. The test is classed as biochemical. On the procedure:
PI3K-Alpha, PI3K-Beta, PI3K-Gamma, and PI3K-delta Fluorescence Polarization Assay Protocols
PI3-Kinase reactions were performed in 5 mM HEPES, pH 7, 2.5 mM MgCl2, and 25 μM ATP, with diC8-PI(4,5)P2 (Echelon, Salt Lake City Utah) as substrate. Nunc 384-well black polypropylene fluorescent plates were used for PI3K assays. Reactions were quenched by the addition of EDTA to a final concentration of 10 mM. Final reaction volumes were 10 μl. For evaluation of PI3K inhibitors, 5 ng of enzyme (PI3K-alpha, beta, gamma, or delta) and 2.5 μM of substrate was used per […] reaction volume, and inhibitor concentrations ranged from 100 μM to 20 μM; the final level of DMSO in reactions never exceeded 2%. Reactions were allowed to proceed for one hour at 25° C. After 1 hour, GST-tagged GRP1 (general receptor for phosphoinositides) PH domain fusion protein was added to a final concentration of 100 nM, and BODIPY-TMRI(1,3,4,5)P4 (Echelon) was also added to a final concentration of 5 nM. Final sample volumes were 25 μl with a final DMSO concentration of 0.8%. Assay Plates were read on Perkin-Elmer Envision plate readers with appropriate filters for Tamra [BODIPY-TMRI(1,3,4,5)P4]. Data obtained were used to calculate enzymatic activity and enzyme inhibition by inhibitor compounds.

Where two headings read alike, the source gives them in different places. Where only a bound is given, the exact number is not on record here.

Chain of PI3K-gamma (P48736 whole entry, species assumed): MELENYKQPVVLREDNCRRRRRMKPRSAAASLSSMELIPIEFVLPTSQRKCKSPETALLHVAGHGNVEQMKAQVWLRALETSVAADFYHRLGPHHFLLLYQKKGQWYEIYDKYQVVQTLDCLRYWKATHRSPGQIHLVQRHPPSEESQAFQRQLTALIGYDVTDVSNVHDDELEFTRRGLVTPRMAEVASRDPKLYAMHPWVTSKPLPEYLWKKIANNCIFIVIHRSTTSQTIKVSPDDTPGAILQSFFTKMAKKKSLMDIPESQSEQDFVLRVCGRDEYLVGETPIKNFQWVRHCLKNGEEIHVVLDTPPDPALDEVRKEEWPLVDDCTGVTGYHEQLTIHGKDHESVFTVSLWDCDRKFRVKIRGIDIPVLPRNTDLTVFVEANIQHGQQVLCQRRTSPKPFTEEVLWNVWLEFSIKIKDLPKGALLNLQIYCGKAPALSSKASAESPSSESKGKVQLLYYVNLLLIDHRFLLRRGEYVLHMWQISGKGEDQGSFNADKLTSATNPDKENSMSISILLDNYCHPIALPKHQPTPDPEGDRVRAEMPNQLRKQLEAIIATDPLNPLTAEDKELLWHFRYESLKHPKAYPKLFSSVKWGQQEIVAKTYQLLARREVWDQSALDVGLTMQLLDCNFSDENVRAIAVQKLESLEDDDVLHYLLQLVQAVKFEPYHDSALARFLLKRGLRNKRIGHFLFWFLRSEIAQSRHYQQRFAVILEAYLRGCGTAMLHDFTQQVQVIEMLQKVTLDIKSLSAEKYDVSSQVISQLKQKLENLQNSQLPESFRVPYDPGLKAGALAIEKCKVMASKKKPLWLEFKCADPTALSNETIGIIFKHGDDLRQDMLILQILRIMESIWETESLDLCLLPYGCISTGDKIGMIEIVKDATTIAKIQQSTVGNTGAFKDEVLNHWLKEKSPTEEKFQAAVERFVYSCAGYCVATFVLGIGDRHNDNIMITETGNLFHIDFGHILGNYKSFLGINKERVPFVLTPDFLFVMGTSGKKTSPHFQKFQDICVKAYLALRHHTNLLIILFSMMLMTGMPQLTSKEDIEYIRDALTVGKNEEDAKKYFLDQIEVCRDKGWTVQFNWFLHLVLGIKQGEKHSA
Chain of PI3K-alpha (P42336 whole entry, species assumed): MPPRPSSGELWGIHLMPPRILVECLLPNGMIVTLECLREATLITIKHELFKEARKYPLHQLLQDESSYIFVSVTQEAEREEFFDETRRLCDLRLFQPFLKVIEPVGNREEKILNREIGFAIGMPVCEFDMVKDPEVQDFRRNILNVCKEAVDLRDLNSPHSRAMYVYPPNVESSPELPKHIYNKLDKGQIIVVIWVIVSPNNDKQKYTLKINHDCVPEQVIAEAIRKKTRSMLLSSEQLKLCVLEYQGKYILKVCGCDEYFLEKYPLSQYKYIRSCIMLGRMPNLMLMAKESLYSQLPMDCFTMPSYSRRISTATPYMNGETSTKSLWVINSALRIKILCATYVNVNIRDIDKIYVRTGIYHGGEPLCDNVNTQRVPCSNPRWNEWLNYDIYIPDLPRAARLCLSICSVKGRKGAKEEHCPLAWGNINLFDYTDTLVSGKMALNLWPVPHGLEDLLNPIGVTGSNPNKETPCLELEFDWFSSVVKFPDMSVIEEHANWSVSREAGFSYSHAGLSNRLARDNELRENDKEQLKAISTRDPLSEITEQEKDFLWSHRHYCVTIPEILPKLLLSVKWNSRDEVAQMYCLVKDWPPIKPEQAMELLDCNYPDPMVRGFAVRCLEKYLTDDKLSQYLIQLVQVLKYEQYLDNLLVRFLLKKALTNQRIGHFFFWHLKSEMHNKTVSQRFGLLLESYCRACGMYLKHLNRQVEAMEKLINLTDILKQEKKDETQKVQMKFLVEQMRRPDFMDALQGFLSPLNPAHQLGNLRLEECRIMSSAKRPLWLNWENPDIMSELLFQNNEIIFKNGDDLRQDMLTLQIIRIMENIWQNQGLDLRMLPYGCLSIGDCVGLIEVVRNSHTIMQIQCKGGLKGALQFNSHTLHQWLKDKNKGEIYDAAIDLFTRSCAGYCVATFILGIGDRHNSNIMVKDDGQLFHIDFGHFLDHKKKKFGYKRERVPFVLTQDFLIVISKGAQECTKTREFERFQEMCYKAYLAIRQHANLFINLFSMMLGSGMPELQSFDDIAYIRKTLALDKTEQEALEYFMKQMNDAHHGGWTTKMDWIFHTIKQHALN
Chain of PI3K-alpha (P27986 whole entry partner, species assumed): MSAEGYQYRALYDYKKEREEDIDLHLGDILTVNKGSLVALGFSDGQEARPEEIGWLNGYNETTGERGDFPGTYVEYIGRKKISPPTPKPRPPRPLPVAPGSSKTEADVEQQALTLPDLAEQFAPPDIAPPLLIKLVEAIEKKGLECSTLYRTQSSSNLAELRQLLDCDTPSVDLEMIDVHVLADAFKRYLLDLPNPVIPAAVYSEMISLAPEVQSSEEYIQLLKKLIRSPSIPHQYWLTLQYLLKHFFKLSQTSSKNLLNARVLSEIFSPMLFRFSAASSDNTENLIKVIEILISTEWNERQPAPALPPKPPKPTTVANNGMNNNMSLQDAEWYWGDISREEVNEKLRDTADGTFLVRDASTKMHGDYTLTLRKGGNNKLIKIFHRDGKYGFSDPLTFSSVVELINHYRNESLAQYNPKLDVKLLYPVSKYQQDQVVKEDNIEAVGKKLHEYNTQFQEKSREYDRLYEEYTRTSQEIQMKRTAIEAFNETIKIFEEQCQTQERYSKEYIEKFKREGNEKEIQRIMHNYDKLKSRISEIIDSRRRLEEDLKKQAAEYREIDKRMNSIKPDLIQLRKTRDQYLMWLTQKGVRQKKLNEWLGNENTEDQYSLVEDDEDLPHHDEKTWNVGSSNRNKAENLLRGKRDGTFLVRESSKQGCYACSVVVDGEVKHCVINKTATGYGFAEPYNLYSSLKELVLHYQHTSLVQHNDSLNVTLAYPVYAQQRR

With `CNC(=O)Nc1ccc2c(c1)C(=O)/C(=C/c1c(C)n(CCCN3CCN(C)CC3)c3ccc(OC)cc13)O2` [Compound 586, 1-[(2Z)-2-({5-methoxy-2-methyl-1-[3-(4-methylpiperazin-1-yl)propyl]-1H-indol-3-yl}methylene)-3-oxo-2,3-dihydro-1-benzofuran-5-yl]-3-methylurea], the IC50 was determined as 3.5 nM at PI3K-alpha and 1010 nM against PI3K-gamma (PI3Kγ Avg. IC50). On the same counts, the results for `COc1ccc2c(c1)c(C=C1Oc3cccc(O)c3C1=O)c(C)n2CCCCl` [Example 125, 2-{[1-(3-chloropropyl)-5-methoxy-2-methyl-1H-indol-3-yl]methylene}-4-hydroxy-1-benzofuran-3(2H)-one] are 380 nM and 933 nM. The corresponding values for `Cn1cc(/C=C2\Oc3cc(O)cc(O)c3C2=O)c2c(N3CCOCC3)cccc21` [Compound 496, (2Z)-4,6-dihydroxy-2-[(1-methyl-4-morpholin-4-yl-1H-indol-3-yl)methylene]-1-benzofuran-3(2H)-one] are 1040 nM and 4770 nM. On the same counts, the results for `CCc1cc(OC)cc2c(/C=C3\Oc4cc(O)cc(O)c4C3=O)cn(CCN3CCN(C)CC3)c12` [Compound 512, (2Z)-2-({7-ethyl-5-methoxy-1-[2-(4-methylpiperazin-1-yl)ethyl]-1H-indol-3-yl}methylene)-4,6-dihydroxy-1-benzofuran-3(2H)-one] are 36.5 nM and 1400 nM. Take `CNC(=O)Nc1ccc2c(c1)C(=O)/C(=C/c1c(C3=CCNCC3)[nH]c3ccc(OC)cc13)O2` [Compound 606, 1-[(2Z)-2-{[5-methoxy-2-(1,2,3,6-tetrahydropyridin-4-yl)-1H-indol-3-yl]methylidene}-3-oxo-2,3-dihydro-1-benzofuran-5-yl]-3-methylurea]: the IC50 at PI3K-alpha stood at 8 nM; at PI3K-gamma (PI3Kγ Avg. IC50) it was 113 nM. The corresponding values for `COc1ccc2c(c1)c(/C=C1\Oc3ccc(NC(=O)NCCCN)cc3C1=O)cn2CCN1CCN(C)CC1` [Compound 566, 1-(3-aminopropyl)-3-[(2Z)-2-({5-methoxy-1-[2-(4-methylpiperazin-1-yl)ethyl]-1Hindol-3-yl}methylene)-3-oxo-2,3-dihydro-1-benzofuran-5-yl]urea] are 93.5 nM and 7790 nM. On the same counts, the results for `CNC(=O)Nc1ccc2c(c1)C(=O)/C(=C/c1c[nH]c3c(/C=C/CN4CCOCC4)cc(OC)cc13)O2` [Compound 567, 1-[(2Z)-2-({5-methoxy-7-[(1E)-3-morpholin-4-ylprop-1-en-1-yl]-1H-indol-3-yl}methylene)-3-oxo-2,3-dihydro-1-benzofuran-5-yl]-3-methylurea] are 164 nM and 1550 nM. `CNC(=O)Nc1ccc2c(c1)C(=O)/C(=C/c1c[nH]c3ccc(OC)cc13)O2` [Compound 536, 1-{(2Z)-2-[(5-methoxy-1H-indol-3-yl)methylene]-3-oxo-2,3-dihydro-1-benzofuran-5-yl}-3-methylurea]: the IC50 on PI3K-alpha came to 58.5 nM; on PI3K-gamma (PI3Kγ Avg. IC50), 545 nM. On the same counts, the results for `CNCCNC(=O)Nc1ccc2c(c1)C(=O)/C(=C/c1c(C3CCCCC3)n(CCN3CCN(C)CC3)c3ccc(OC)cc13)O2` [Compound 584, 1-[(2Z)-2-({2-cyclohexyl-5-methoxy-1-[2-(4-methylpiperazin-1-yl)ethyl]-1H-indol-3-yl}methylene)-3-oxo-2,3-dihydro-1-benzofuran-5-yl]-3-[2-(methylamino)ethyl]urea] are 1.1 nM and 26 nM. On the same counts, the results for `CNC(=O)Nc1ccc2c(c1)C(=O)/C(=C/c1c[nH]c3c(CCCN4CCN(C)CC4)cc(OC)cc13)O2` [Compound 583, 1-[(2Z)-2-({5-methoxy-7-[3-(4-methylpiperazin-1-yl)propyl]-1H-indol-3-yl}methylene)-3-oxo-2,3-dihydro-1-benzofuran-5-yl]-3-methylurea] are 222 nM and 6490 nM. For `COc1ccc2[nH]c(C)c(C=C3Oc4c(O)cccc4C3=O)c2c1` [Example 120, 7-hydroxy-2-[(5-methoxy-2-methyl-1H-indol-3-yl)methylene]-1-benzofuran-3(2H)-one], the values for the IC50 at PI3K-alpha and against PI3K-gamma (PI3Kγ Avg. IC50) were 1540 nM and 10300 nM, respectively. The corresponding values for `Cn1cc(/C=C2/Oc3cc(O)cc(O)c3C2=O)c2c(-c3ccccc3)cccc21` [Compound 557, (2E)-4,6-dihydroxy-2-[(1-methyl-4-phenyl-1H-indol-3-yl)methylene]-1-benzofuran-3(2H)-one] are 1200 nM and over 10000 nM. The corresponding values for `CNC(=O)Nc1ccc2c(c1)C(=O)/C(=C/c1c(-c3nc(C4CC4)no3)[nH]c3ccc(OC)cc13)O2` [Compound 592, 1-[(2Z)-2-{[2-(3-cyclopropyl-1,2,4-oxadiazol-5-yl)-5-methoxy-1H-indol-3-yl]methylene}-3-oxo-2,3-dihydro-1-benzofuran-5-yl]-3-methylurea] are 5.5 nM and 8900 nM.

Turning to `CNC(=O)Nc1ccc2c(c1)C(=O)/C(=C/c1cn(CCCN3CCOCC3)c3ccc(OC)cc13)O2` [Compound 580, 1-[(2Z)-2-{[5-methoxy-1-(3-morpholin-4-ylpropyl)-1H-indol-3-yl]methylene}-3-oxo-2,3-dihydro-1-benzofuran-5-yl]-3-methylurea], the IC50 at PI3K-alpha came to 53 nM; at PI3K-gamma (PI3Kγ Avg. IC50), 1360 nM.

For `COc1ccc2c(c1)c(/C=C1\Oc3ccc(NC(=O)NCCO)cc3C1=O)cn2CCCN(C)C` [Compound 554, 1-[(2Z)-2-({1-[3-(dimethylamino)propyl]-5-methoxy-1H-indol-3-yl}methylene)-3-oxo-2,3-dihydro-1-benzofuran-5-yl]-3-(2-hydroxyethyl)urea], the IC50 on PI3K-alpha is 73 nM; against PI3K-gamma (PI3Kγ Avg. IC50) it was 5260 nM. On the same counts, the results for `COc1ccc2[nH]cc(CC3Oc4cc(O)cc(O)c4C3=O)c2c1` (centres unmarked) [Example 117, 4,6-dihydroxy-2-[(5-methoxy-1H-indol-3-yl)methyl]-1-benzofuran-3(2H)-one] are 1840 nM and 8600 nM. In the case of “6,7-dihydroxy-2-[(1-{4-[4-(2-hydroxyethyl)piperazin-1-yl]butyl}-5-methoxy-2-methyl-1H-indol-3-yl)methylene]-1-benzofuran-3(2H)-one [Example 134]”, the IC50 was 204 nM at PI3K-alpha and 3170 nM at PI3K-gamma (read-out: PI3Kγ Avg. IC50). `COC(=O)NC(=O)Nc1ccc2c(c1)C(=O)/C(=C/c1c[nH]c3ccc(OC)cc13)O2` [Compound 490, methyl ({(2Z)-2-[(5-methoxy-1H-indol-3-yl)methylene]-3-oxo-2,3-dihydro-1-benzofuran-5-yl}carbamoyl)carbamate]: the IC50 on PI3K-alpha was 674 nM; against PI3K-gamma (PI3Kγ Avg. IC50), over 10000 nM. Regarding `CNC(=O)Nc1ccc2c(c1)C(=O)/C(=C/c1c(C)n(CCN(C)C)c3ccc(OC)cc13)O2` [Compound 610, 1-[(2Z)-2-({1-[2-(dimethylamino)ethyl]-5-methoxy-2-methyl-1H-indol-3-yl}methylidene)-3-oxo-2,3-dihydro-1-benzofuran-5-yl]-3-methylurea], the IC50 was determined as 11.5 nM at PI3K-alpha and 106 nM against PI3K-gamma (PI3Kγ Avg. IC50). On the same counts, the results for `COc1ccc2[nH]cc(C=C3Oc4cc(C(N)=O)ccc4C3=O)c2c1` [Compound 495, 2-[(5-methoxy-1H-indol-3-yl)methylene]-3-oxo-2,3-dihydro-1-benzofuran-6-carboxamide] are over 10000 nM and over 10000 nM.

In the case of `COc1ccc2c(c1)c(/C=C1\Oc3ccc(O)cc3C1=O)c(C)n2CCN1CCN(C)CC1` [Compound 519], the IC50 is 273 nM on PI3K-alpha and 6050 nM against PI3K-gamma (PI3Kγ Avg. IC50). `Cn1cc(/C=C2\Oc3ccc(O)cc3C2=O)c2c(-c3ccccc3)cccc21` [Compound 530, (2Z)-5-hydroxy-2-[(1-methyl-4-phenyl-1H-indol-3-yl)methylene]-1-benzofuran-3(2H)-one]: the IC50 on PI3K-alpha and against PI3K-gamma (PI3Kγ Avg. IC50) was over 10000 nM throughout. Take `COc1ccc2c(c1)c(/C=C1\Oc3ccc(NC(=O)NCCN)cc3C1=O)c(C1CCCC1)n2CCN1CCN(C)CC1` [Compound 577, 1-(2-aminoethyl)-3-[(2Z)-2-({2-cyclopentyl-5-methoxy-1-[2-(4-methylpiperazin-1-yl)ethyl]-1H-indol-3-yl}methylene)-3-oxo-2,3-dihydro-1-benzofuran-5-yl]urea]: the values for the IC50 on PI3K-alpha and at PI3K-gamma (PI3Kγ Avg. IC50) were 1.1 nM and 146 nM, respectively.

`Cn1cc(C=C2Oc3cc(O)cc(O)c3C2=O)c2c(-c3ccccc3)cccc21` [Example 268, 4,6-dihydroxy-2-[(1-methyl-4-phenyl-1H-indol-3-yl)methylene]-1-benzofuran-3(2H)-one]: the IC50 is over 5740 nM on PI3K-alpha and 2690 nM against PI3K-gamma (PI3Kγ Avg. IC50). `Cn1cc(/C=C2\Oc3cc(O)cc(O)c3C2=O)c2ccccc21` [Example 16, (2Z)-4,6-dihydroxy-2-[(1-methyl-1H-indol-3-yl)methylene]-1-benzofuran-3(2H)-one] showed an IC50 on PI3K-gamma (PI3Kγ Avg. IC50) of 6950 nM.

`COc1ccc2c(c1)c(C=C1Oc3c(ccc(O)c3O)C1=O)c(C)n2CCCCN1CCN(CCO)CC1` [Example 146, 6,7-dihydroxy-2-[(1-{4-[4-(2-hydroxyethyl)piperazin-1-yl]butyl}-5-methoxy-2-methyl-1H-indol-3-yl)methylene]-1-benzofuran-3(2H)-one]: at PI3K-alpha, the IC50 was 850 nM.
